# Experimental data reported in ChEMBL document CHEMBL1157672, “Detection of multiple network-based allosteric interactions between peptides and arrays of DNA binding sites” (Bioorg Med Chem, 2010).
# Activity calls are given as the source filed them. The calls are words filed in the database; no cut-off is given here.
# Key:
# Type in all cases: nucleic-acid assay
# Nucleic Acid [1] = assay: Binding affinity to 11-mer duplex 3A-3T DNA at 0.2 to 7 uM after 60 mins by circular dichroism spectroscopy
# Nucleic Acid [2] = assay: Binding affinity to 5'-TTTTCTCCT-3' sequence of Escherichia coli 135-mer duplex pBR322 fragment after 60 mins by DNase I footprinting
# Nucleic Acid [3] = assay: Binding affinity to 5'-GAAAATA-3' sequence of Escherichia coli 158-mer duplex pBR322 fragment at 1 to 3000 nM after 60 mins by DNase I footprinting
# Nucleic Acid [4] = assay: Binding affinity to d(AAA)-d(TTT) sequence of Escherichia coli 135-mer duplex pBR322 fragment assessed as allosteric interaction after 60 mins by DNase I footprinting
# Nucleic Acid [5] = assay: Binding affinity to 5'-TTTTCTCCT-3' sequence of Escherichia coli 135-mer duplex pBR322 fragment at 1 to 3000 nM after 60 mins by DNase I footprinting
# Nucleic Acid [6] = assay: Binding affinity to 11-mer duplex 4A-4T DNA minor groove at peptide to duplex ratio of 2:1 after 60 mins by circular dichroism spectroscopy
# Nucleic Acid [7] = assay: Binding affinity to 5'-GAAAATA-3' sequence of Escherichia coli 158-mer duplex pBR322 fragment after 60 mins by DNase I footprinting
# Nucleic Acid [8] = assay: Binding affinity to d(AAAA)-d(TTTT) sequence of Escherichia coli 158-mer duplex pBR322 fragment assessed as allosteric interaction after 60 mins by DNase I footprinting
# Nucleic Acid [9] = assay: Binding affinity to 5'-TT-3' sequence of Escherichia coli 135-mer duplex pBR322 fragment after 60 mins by DNase I footprinting
# Nucleic Acid [10] = assay: Binding affinity to 11-mer duplex 3A-3T DNA minor groove at peptide to duplex ratio of 2:1 after 60 mins by circular dichroism spectroscopy
# Nucleic Acid [11] = assay: Binding affinity to 5'-AATACC-3' sequence of Escherichia coli 158-mer duplex pBR322 fragment after 60 mins by DNase I footprinting
# Nucleic Acid [12] = assay: Binding affinity to 5'-TT-3' sequence of Escherichia coli 135-mer duplex pBR322 fragment at 50 to 2000 nM after 60 mins by DNase I footprinting
# Nucleic Acid [13] = assay: Binding affinity to 5'-AATACC-3' sequence of Escherichia coli 158-mer duplex pBR322 fragment at 1 to 3000 nM after 60 mins by DNase I footprinting
# Nucleic Acid [14] = assay: Binding affinity to 5'-TT-3' sequence of Escherichia coli 135-mer duplex pBR322 fragment at 1 to 3000 nM after 60 mins by DNase I footprinting
# Nucleic Acid [15] = assay: Binding affinity to 5'-AAAAT-3' sequence of Escherichia coli 81-mer duplex pBR322 fragment after 60 mins by DNase I footprinting
# Nucleic Acid [16] = assay: Binding affinity to 11-mer duplex 4A-4T DNA at 0.2 uM after 60 mins by circular dichroism spectroscopy
# Nucleic Acid [17] = assay: Binding affinity to 11-mer duplex 4A-4T DNA after 60 mins by circular dichroism spectroscopy
# Nucleic Acid [18] = assay: Binding affinity to 5'-TTTTCTC-3' sequence of Escherichia coli 81-mer duplex pBR322 fragment after 60 mins by DNase I footprinting
# Nucleic Acid [19] = assay: Binding affinity to 11-mer duplex 4A-4T DNA at 0.2 to 7 uM after 60 mins by circular dichroism spectroscopy
# Nucleic Acid [20] = assay: Binding affinity to 5'-AATAC-3' sequence of Escherichia coli 158-mer duplex pBR322 fragment at 10 to 2000 nM after 60 mins by DNase I footprinting
# Nucleic Acid [21] = assay: Binding affinity to 5'-AGAAAATAC-3' sequence of Escherichia coli 158-mer duplex pBR322 fragment at 10 to 2000 nM after 60 mins by DNase I footprinting
# Nucleic Acid [22] = assay: Binding affinity to 5'-TTTCTCCT-3' sequence of Escherichia coli 135-mer duplex pBR322 fragment at 50 to 2000 nM after 60 mins by DNase I footprinting
# Nucleic Acid [23] = assay: Binding affinity to 5'-TTTCTCCT-3' sequence of Escherichia coli 135-mer duplex pBR322 fragment after 60 mins by DNase I footprinting
# Nucleic Acid [24] = assay: Binding affinity to 5'-TTTCT-3' sequence of Escherichia coli 81-mer duplex pBR322 fragment after 60 mins by DNase I footprinting
# Nucleic Acid [25] = assay: Binding affinity to 5'-AGAAAATAC-3' sequence of Escherichia coli 158-mer duplex pBR322 fragment after 60 mins by DNase I footprinting
# Nucleic Acid [26] = assay: Binding affinity to 5'-AATAC-3' sequence of Escherichia coli 158-mer duplex pBR322 fragment after 60 mins by DNase I footprinting
# Nucleic Acid [27] = assay: Binding affinity to 5'-TTT-3' sequence of Escherichia coli 135-mer duplex pBR322 fragment at 12 nM after 60 mins by DNase I footprinting
# Nucleic Acid [28] = assay: Binding affinity to 5'-AATACCG-3' sequence of Escherichia coli 158-mer duplex pBR322 fragment at 1 to 3000 nM after 60 mins by DNase I footprinting
# Nucleic Acid [29] = assay: Binding affinity to 5'-AGAAAATACCG-3' sequence of Escherichia coli 158-mer duplex pBR322 fragment after 60 mins by DNase I footprinting
# Nucleic Acid [30] = assay: Binding affinity to 5'-AATACCG-3' sequence of Escherichia coli 158-mer duplex pBR322 fragment after 60 mins by DNase I footprinting
# Nucleic Acid [31] = assay: Binding affinity to 5'-AGAAAATACCG-3' sequence of Escherichia coli 158-mer duplex pBR322 fragment at 1 to 3000 nM after 60 mins by DNase I footprinting
# Nucleic Acid [32] = assay: Binding affinity to 5'-TTTCTCC-3' sequence of Escherichia coli 135-mer duplex pBR322 fragment at 1 to 3000 nM after 60 mins by DNase I footprinting
# Nucleic Acid [33] = assay: Binding affinity to 5'-TTTCTCC-3' sequence of Escherichia coli 135-mer duplex pBR322 fragment after 60 mins by DNase I footprinting
# Nucleic Acid [34] = assay: Binding affinity to 5'-TTT-3' sequence of Escherichia coli 135-mer duplex pBR322 fragment after 60 mins by DNase I footprinting
smiles,measurement,setting,value
Cn1cc(NC(=O)c2cc(NC(=O)[C@@H](CCCCN)NC(=O)[C@H](CCCNC(=N)N)NC(=O)[C@@H]3C[C@@H](O)CN3C(=O)[C@@H](N)Cc3cnc[nH]3)cn2C)cc1C(=O)Nc1cc(C(=O)N[C@@H](CCCCN)C(=O)N[C@@H](CCCNC(=N)N)C(N)=O)n(C)c1,Activity,Nucleic Acid [1],Active
same,Ka,Nucleic Acid [2],2.2 ×10⁶ /M
same,Activity,Nucleic Acid [3],Active
same,Activity,Nucleic Acid [4],Active
same,Activity,Nucleic Acid [5],Active
same,Activity,Nucleic Acid [6],Active
same,Ka,Nucleic Acid [7],3.8 ×10⁶ /M
same,Activity,Nucleic Acid [8],Active
same,Ka,Nucleic Acid [9],2.7 ×10⁶ /M
same,Activity,Nucleic Acid [10],Active
same,Ka,Nucleic Acid [11],2.5 ×10⁶ /M
same,Activity,Nucleic Acid [12],inactive
same,Activity,Nucleic Acid [13],Active
same,Activity,Nucleic Acid [14],Active
same,Ka,Nucleic Acid [15],2.1 ×10⁶ /M
same,Activity,Nucleic Acid [16],Active
same,Activity,Nucleic Acid [17],Dose-dependent effect
same,Ka,Nucleic Acid [18],1.9 ×10⁶ /M
Cn1cc(NC(=O)c2cc(NC(=O)[C@@H](CCCCN)NC(=O)[C@H](CCCNC(=N)N)NC(=O)[C@@H]3C[C@@H](O)CN3C(=O)[C@@H](N)Cc3cnc[nH]3)cn2C)cc1C(=O)Nc1cc(C(=O)Nc2cc(C(=O)N[C@@H](Cc3cnc[nH]3)C(=O)N3C[C@H](O)C[C@H]3C(=O)N[C@@H](CCCNC(=N)N)C(=O)N[C@@H](CCCCN)C(N)=O)n(C)c2)n(C)c1,Activity,Nucleic Acid [19],Active
same,Activity,Nucleic Acid [20],Active
same,Activity,Nucleic Acid [1],Active
same,Activity,Nucleic Acid [4],Active
same,Activity,Nucleic Acid [6],Active
same,Activity,Nucleic Acid [8],Active
same,Activity,Nucleic Acid [21],Active
same,Activity,Nucleic Acid [22],Active
same,Activity,Nucleic Acid [10],Active
same,Ka,Nucleic Acid [23],3.4 ×10⁶ /M
same,Ka,Nucleic Acid [24],2.5 ×10⁶ /M
same,Ka,Nucleic Acid [25],3.4 ×10⁶ /M
same,Ka,Nucleic Acid [15],1.4 ×10⁶ /M
same,Ka,Nucleic Acid [26],2.5 ×10⁶ /M
Cn1cc(NC(=O)c2cc(NC(=O)[C@@H](CCCCN)NC(=O)[C@H](CCCNC(=N)N)NC(=O)[C@@H]3CCCN3C(=O)[C@@H](N)Cc3cnc[nH]3)cn2C)cc1C(=O)Nc1cc(C(=O)Nc2cc(C(=O)N[C@@H](Cc3cnc[nH]3)C(=O)N3CCC[C@H]3C(=O)N[C@@H](CCCNC(=N)N)C(=O)N[C@@H](CCCCN)C(N)=O)n(C)c2)n(C)c1,Activity,Nucleic Acid [27],Active
same,Activity,Nucleic Acid [4],Active
same,Activity,Nucleic Acid [28],Active
same,Activity,Nucleic Acid [8],Active
same,Ka,Nucleic Acid [29],3.2 ×10⁶ /M
same,Ka,Nucleic Acid [30],6.7 ×10⁷ /M
same,Activity,Nucleic Acid [31],Active
same,Activity,Nucleic Acid [32],Active
same,Ka,Nucleic Acid [33],3.8 ×10⁶ /M
same,Ka,Nucleic Acid [34],3.7 ×10⁶ /M
